Data from patent US20110065916A1, “METHOD OF MAKING IMIDAZOAZEPINONE COMPOUNDS” (priority 2007, published 2011).

System: human T-bet
Assay: HEKT-bet-luc assay (normalized HEKT-bet IC50)
Format: cell-based
Conditions: Homo sapiens, HEK293, 24 h, Table 4, engineered HEK cells, compound 24 hours, normalized to reference ER-819544
Procedure: HEKT-bet-luc assay: This assay measures a T-bet dependent reporter (luciferase) activity in engineered HEK cells that express a human T-bet and a T-box responsive element driving luciferase reporter. HEKT-bet cells were plated at 2×10^4/well in 96-well plate and compound was added into cell culture for 24 hours. Luciferase activity was measured by adding 50 μl of Steady-Glo reagent (Promega) and samples were read in Victor V reader (PerkinElmer). The activity of compound was determined by comparing compound treated samples to non-compound treated vehicle controls. The IC50 values were calculated utilizing a maximum value corresponding to the amount of luciferase in the absence of a test compound and a minimum value corresponding to a test compound value obtained at maximum inhibition.
Determination of Normalized HEKT-bet IC50 values: Compounds were assayed in microtiter plates. Each plate included a reference compound which was ER-819544. The un-normalized IC50 value for a particular compound was divided by the IC50 value determined for the reference compound in the same microtiter plate to provide a relative potency value. The relative potency value was then multiplied by the established potency of the reference compound to provide the normalized HEKT-bet IC50 value. […] The IC50 values provided herein were obtained using this normalization method.

Row | Compound | IC50 [µM]
1 | CCN1C(=O)N2Cc3cc(OC)cc(OC)c3[C@@H](C)C=C2C12CCN(Cc1c(-c3ccc(F)cc3)nc3ncccn13)CC2 [ER-811346-02] | 0.2
2 | CCN1C(=O)N2Cc3cc(OC)cc(OC)c3[C@@H](C)C=C2C12CCN(Cc1cccc3c1ccn3C)CC2 [ER-811349-01] | 0.043
3 | CCN1C(=O)N2Cc3cc(OC)cc(OC)c3[C@@H](C)C=C2C12CCN(Cc1c(C)nc3sccn13)CC2 [ER-811352-02] | 0.013
4 | CCN1C(=O)N2Cc3cc(OC)cc(OC)c3[C@@H](C)C=C2C12CCN(Cc1cccn1C(C)C)CC2 [ER-811358-01] | 0.22
5 | CCN1C(=O)N2Cc3cc(OC)cc(OC)c3[C@@H](C)C=C2C12CCN(Cc1cccn1C(C)(C)C)CC2 [ER-811359-01] | 0.27
6 | CCN1C(=O)N2Cc3cc(OC)cc(OC)c3[C@@H](C)C=C2C12CCN(Cc1cc(C)sc1C)CC2 [ER-811365-01] | 0.084
7 | CCN1C(=O)N2Cc3cc(OC)cc(OC)c3[C@@H](C)C=C2C12CCN(Cc1cc(C)cc(C)c1)CC2 [ER-819762] | 0.04
8 | CCN1C(=O)N2Cc3cc(OC)cc(OC)c3[C@H](C)C=C2C12CCN(Cc1cc(C)cc(C)c1)CC2 [ER-819763] | 0.55
9 | CCN1C(=O)N2Cc3cc(OC)cc(OC)c3[C@@H](C)C=C2C12CCN(Cc1cnc[nH]1)CC2 [ER-819780-01] | 0.2
10 | CCN1C(=O)N2Cc3cc(OC)cc(OC)c3[C@@H](C)C=C2C12CCN(Cc1c[nH]c3ccccc13)CC2 [ER-819783-01] | 0.035
11 | CCN1C(=O)N2Cc3cc(OC)cc(OC)c3[C@@H](C)C=C2C12CCN(Cc1nn(C)c3ccccc13)CC2 [ER-819800-01] | 0.023
12 | CCN1C(=O)N2Cc3cc(OC)cc(OC)c3[C@@H](C)C=C2C12CCN(Cc1cn(C)c3ccccc13)CC2 [ER-819804-01] | 0.04
13 | CCN1C(=O)N2Cc3cc(OC)cc(OC)c3[C@@H](C)C=C2C12CCN(Cc1cn(C(C)=O)c3ccccc13)CC2 [ER-819808-01] | 0.14
14 | CCN1C(=O)N2Cc3cc(OC)cc(OC)c3[C@@H](C)C=C2C12CCN(Cc1cnoc1C)CC2 [ER-819810-01] | 0.012
15 | CCN1C(=O)N2Cc3cc(OC)cc(OC)c3[C@@H](C)C=C2C12CCN(Cc1ccc(/C=C/c3ccccc3)cc1)CC2 [ER-819814-01] | 0.3
16 | CCN1C(=O)N2Cc3cc(OC)cc(OC)c3[C@@H](C)C=C2C12CCN(Cc1ccc3nn[nH]c3c1)CC2 [ER-819820-01] | 0.09
17 | CCN1C(=O)N2Cc3cc(OC)cc(OC)c3[C@@H](C)C=C2C12CCN(Cc1c[nH]nc1C)CC2 [ER-819826-01] | 0.067
18 | CCN1C(=O)N2Cc3cc(OC)cc(OC)c3[C@@H](C)C=C2C12CCN(Cc1cccnc1C)CC2 [ER-819832-01] | 0.057
19 | CCN1C(=O)N2Cc3cc(OC)cc(OC)c3[C@@H](C)C=C2C12CCN(Cc1cccnc1OC)CC2 [ER-819833-01] | 0.047
20 | CCN1C(=O)N2Cc3cc(OC)cc(OC)c3[C@@H](C)C=C2C12CCN(Cc1cnc3ccccc3c1)CC2 [ER-819837-01] | 0.056
21 | CCN1C(=O)N2Cc3cc(OC)cc(OC)c3[C@@H](C)C=C2C12CCN(Cc1sncc1C)CC2 [ER-819842-01] | 0.081
22 | CCN1C(=O)N2Cc3cc(OC)cc(OC)c3[C@@H](C)C=C2C12CCN(Cc1ccc3cc[nH]c3c1)CC2 [ER-819844-01] | 0.067
23 | CCN1C(=O)N2Cc3cc(OC)cc(OC)c3[C@@H](C)C=C2C12CCN(Cc1ccc3nn(C)nc3c1)CC2 [ER-819847-01] | 0.035
24 | CCN1C(=O)N2Cc3cc(OC)cc(OC)c3[C@@H](C)C=C2C12CCN(Cc1cccn1-c1ccccc1C(F)(F)F)CC2 [ER-819849-01] | 0.22
25 | CCN1C(=O)N2Cc3cc(O)cc(O)c3[C@@H](C)C=C2C12CCN(Cc1cc(C)cc(C)c1)CC2 [ER-819888-00] | 0.3
26 | CCN1C(=O)N2Cc3cc(OC)cc(OC)c3[C@@H](C)C=C2C12CCN(Cc1cccn1C)CC2 [ER-819924] | 0.05
27 | CCN1C(=O)N2Cc3cc(OC)cc(OC)c3[C@H](C)C=C2C12CCN(Cc1cccn1C)CC2 [ER-819925] | 0.32
28 | CCN1C(=O)N2Cc3cc(OC)cc(OC)c3[C@@H](C)C=C2C12CCN(Cc1nc3ccccc3n1C)CC2 [ER-819926] | 0.04
